Measurements from patent US5470852A, “Tetrahydroprotoberberine quaternary ammonium compounds useful in for treating arrhythmia” (priority 1991, dated 1995).
Read-outs that look alike come from different tables or passages of the source.

Test system: anaesthetized rats
Details: for Antiarrhythmic effect / Arrhythmic scores / Lethal risk: X ± SD; for Incidence of VF: n=10; for animals with VF / animals without VF / Death: of n=10; for therapeutic index (TI), VF / therapeutic index (TI), arrhythmias: rat, in vivo

`COc1ccc2c(c1OC)C[N+]1(Cc3ccc(Cl)cc3)CCc3cc4c(cc3C1C2)OCO4` (centres unmarked) [Compound I13, 7-(4-chlorobenzyl)-5,8,13,13a-tetrahydroberberine chloride] was tested. Which Antiarrhythmic effect (iv 1.0 mg/kg, reperfusion 0.17 min) did it give?
Its Antiarrhythmic effect is 1.4 ± 1.4.

And the Antiarrhythmic effect (iv 1.0 mg/kg, reperfusion 0.33 min)?
Its Antiarrhythmic effect is 3.2 ± 2.0.

And the Antiarrhythmic effect (iv 1.0 mg/kg, reperfusion 0.5 min)?
The Antiarrhythmic effect was 1.6 ± 1.6.

What about the Antiarrhythmic effect (iv 1.0 mg/kg, reperfusion 2 min) of the same molecule?
The Antiarrhythmic effect was 0.20 ± 0.26.

And the Antiarrhythmic effect (iv 1.0 mg/kg, reperfusion 3 min)?
The Antiarrhythmic effect was 0.20 ± 0.26.

And the Antiarrhythmic effect (iv 1.0 mg/kg, reperfusion 5 min)?
The Antiarrhythmic effect was 0.20 ± 0.26.

What about the Antiarrhythmic effect (iv 1.0 mg/kg, reperfusion 6 min) of the same molecule?
The Antiarrhythmic effect was 0.20 ± 0.26.

What about the Antiarrhythmic effect (iv 1.0 mg/kg, reperfusion 7 min) of the same molecule?
Its Antiarrhythmic effect is 0.20 ± 0.26.

And the Antiarrhythmic effect (iv 1.0 mg/kg, reperfusion 10 min)?
Its Antiarrhythmic effect is 0.20 ± 0.26.

And the Antiarrhythmic effect (iv 1.0 mg/kg, reperfusion 15 min)?
Its Antiarrhythmic effect is 0.10 ± 0.21.

What about the Antiarrhythmic effect (iv 1.0 mg/kg, reperfusion 25 min) of the same molecule?
Its Antiarrhythmic effect is 0.10 ± 0.21.

And the “potency relative to propafenon” value (p.o.)?
The value was “considerably more potent”.

And the Arrhythmic scores (po 10 mg/kg)?
The Arrhythmic scores was 2.7 ± 1.9.

What about the Antiarrhythmic effect (po 10 mg/kg, coronary occlusion 5 min) of the same molecule?
The Antiarrhythmic effect was 0.4 ± 0.8.

What about the Antiarrhythmic effect (po 10 mg/kg, coronary occlusion 10 min) of the same molecule?
The Antiarrhythmic effect was 0.50 ± 0.16.

What about the “Incidence of VF” value (po 10 mg/kg) of the same molecule?
The value was 20%.

And the “animals with VF” value (po 10 mg/kg)?
Its value is 2.

And the “animals without VF” value (po 10 mg/kg)?
Its value is 8.

What about the Antiarrhythmic effect (po 10 mg/kg, reperfusion 0.17 min) of the same molecule?
Its Antiarrhythmic effect is 2.6 ± 1.8.

What about the Antiarrhythmic effect (po 10 mg/kg, reperfusion 0.33 min) of the same molecule?
Its Antiarrhythmic effect is 2.7 ± 1.9.

What about the Antiarrhythmic effect (po 10 mg/kg, reperfusion 0.5 min) of the same molecule?
Its Antiarrhythmic effect is 1.9 ± 1.7.

What about the Antiarrhythmic effect (po 10 mg/kg, reperfusion 1 min) of the same molecule?
Its Antiarrhythmic effect is 1.9 ± 1.6.

And the Antiarrhythmic effect (po 10 mg/kg, reperfusion 1.5 min)?
Its Antiarrhythmic effect is 1.4 ± 1.3.

What about the Antiarrhythmic effect (po 10 mg/kg, reperfusion 3 min) of the same molecule?
The Antiarrhythmic effect was 1.1 ± 1.5.

What about the Antiarrhythmic effect (po 10 mg/kg, reperfusion 4 min) of the same molecule?
Its Antiarrhythmic effect is 1.2 ± 1.4.

And the Antiarrhythmic effect (po 10 mg/kg, reperfusion 5 min)?
Its Antiarrhythmic effect is 1.0 ± 1.2.

What about the Antiarrhythmic effect (po 10 mg/kg, reperfusion 6 min) of the same molecule?
Its Antiarrhythmic effect is 0.8 ± 1.1.

What about the Antiarrhythmic effect (po 10 mg/kg, reperfusion 7 min) of the same molecule?
Its Antiarrhythmic effect is 0.8 ± 1.1.

What about the Antiarrhythmic effect (po 10 mg/kg, reperfusion 15 min) of the same molecule?
Its Antiarrhythmic effect is 0.8 ± 1.1.

And the Antiarrhythmic effect (po 10 mg/kg, reperfusion 25 min)?
The Antiarrhythmic effect was 0.8 ± 1.1.

And the Arrhythmic scores (po 30 mg/kg)?
The Arrhythmic scores was 3.2 ± 2.2.

What about the “Lethal risk” value (po 30 mg/kg) of the same molecule?
The value was 57 ± 26.

What about the Antiarrhythmic effect (po 30 mg/kg, coronary occlusion 5 min) of the same molecule?
The Antiarrhythmic effect was 0 ± 0.

And the Antiarrhythmic effect (po 30 mg/kg, coronary occlusion 10 min)?
The Antiarrhythmic effect was 1.6 ± 1.6.

What about the “Incidence of VF” value (po 30 mg/kg) of the same molecule?
Its value is 20%.

And the Death (po 30 mg/kg)?
Its Death is 1.

And the “animals with VF” value (po 30 mg/kg)?
The value was 2.

What about the “animals without VF” value (po 30 mg/kg) of the same molecule?
Its value is 7.

What about the Antiarrhythmic effect (po 30 mg/kg, reperfusion 0.17 min) of the same molecule?
Its Antiarrhythmic effect is 3.2 ± 1.2.

What about the Antiarrhythmic effect (po 30 mg/kg, reperfusion 0.33 min) of the same molecule?
Its Antiarrhythmic effect is 2.8 ± 2.1.

And the Antiarrhythmic effect (po 30 mg/kg, reperfusion 0.5 min)?
Its Antiarrhythmic effect is 1.7 ± 1.7.

And the Antiarrhythmic effect (po 30 mg/kg, reperfusion 1 min)?
The Antiarrhythmic effect was 1.1 ± 1.5.

And the Antiarrhythmic effect (po 30 mg/kg, reperfusion 1.5 min)?
Its Antiarrhythmic effect is 1.1 ± 1.5.

And the Antiarrhythmic effect (po 30 mg/kg, reperfusion 3 min)?
The Antiarrhythmic effect was 1.6 ± 2.4.

What about the Antiarrhythmic effect (po 30 mg/kg, reperfusion 4 min) of the same molecule?
Its Antiarrhythmic effect is 0.8 ± 1.3.

What about the Antiarrhythmic effect (po 30 mg/kg, reperfusion 5 min) of the same molecule?
The Antiarrhythmic effect was 0.2 ± 0.2.

And the Antiarrhythmic effect (po 30 mg/kg, reperfusion 6 min)?
Its Antiarrhythmic effect is 0.2 ± 0.2.

And the Antiarrhythmic effect (po 30 mg/kg, reperfusion 7 min)?
Its Antiarrhythmic effect is 0.15 ± 0.24.

And the Antiarrhythmic effect (po 30 mg/kg, reperfusion 15 min)?
The Antiarrhythmic effect was 0.11 ± 0.22.

What about the Antiarrhythmic effect (po 30 mg/kg, reperfusion 25 min) of the same molecule?
Its Antiarrhythmic effect is 0.05 ± 0.17.

What about the Arrhythmic scores (po 100 mg/kg) of the same molecule?
The Arrhythmic scores was 0.7 ± 0.2.

And the “Lethal risk” value (po 100 mg/kg)?
The value was 41 ± 0.

And the Antiarrhythmic effect (po 100 mg/kg, coronary occlusion 5 min)?
The Antiarrhythmic effect was 0.20 ± 0.24.

What about the Antiarrhythmic effect (po 100 mg/kg, coronary occlusion 10 min) of the same molecule?
The Antiarrhythmic effect was 0.3 ± 0.6.

What about the “Incidence of VF” value (po 100 mg/kg) of the same molecule?
The value was 0%.

What about the Death (po 100 mg/kg) of the same molecule?
Its Death is 0.

And the “animals with VF” value (po 100 mg/kg)?
The value was 0.

What about the “animals without VF” value (po 100 mg/kg) of the same molecule?
The value was 10.

And the Antiarrhythmic effect (po 100 mg/kg, reperfusion 0.17 min)?
The Antiarrhythmic effect was 0.10 ± 0.21.

What about the Antiarrhythmic effect (po 100 mg/kg, reperfusion 0.33 min) of the same molecule?
Its Antiarrhythmic effect is 0.05 ± 0.16.

What about the Antiarrhythmic effect (po 100 mg/kg, reperfusion 0.5 min) of the same molecule?
Its Antiarrhythmic effect is 0.4 ± 1.2.

What about the Antiarrhythmic effect (po 100 mg/kg, reperfusion 1 min) of the same molecule?
Its Antiarrhythmic effect is 0.05 ± 0.16.

And the Antiarrhythmic effect (po 100 mg/kg, reperfusion 1.5 min)?
Its Antiarrhythmic effect is 0.05 ± 0.16.

What about the Antiarrhythmic effect (po 100 mg/kg, reperfusion 3 min) of the same molecule?
The Antiarrhythmic effect was 0.05 ± 0.16.

What about the Antiarrhythmic effect (po 100 mg/kg, reperfusion 4 min) of the same molecule?
The Antiarrhythmic effect was 0.05 ± 0.16.

What about the Antiarrhythmic effect (po 100 mg/kg, reperfusion 5 min) of the same molecule?
Its Antiarrhythmic effect is 0.05 ± 0.16.

And the Antiarrhythmic effect (po 100 mg/kg, reperfusion 6 min)?
Its Antiarrhythmic effect is 0.05 ± 0.16.

And the Antiarrhythmic effect (po 100 mg/kg, reperfusion 7 min)?
Its Antiarrhythmic effect is 0.05 ± 0.16.

And the Antiarrhythmic effect (po 100 mg/kg, reperfusion 15 min)?
The Antiarrhythmic effect was 0.05 ± 0.16.

And the Antiarrhythmic effect (po 100 mg/kg, reperfusion 25 min)?
Its Antiarrhythmic effect is 0.05 ± 0.16.

What about the “therapeutic index (TI), VF” value (iv) of the same molecule?
Its value is 35.

And the “therapeutic index (TI), arrhythmias” value (iv)?
Its value is 26.

And the “therapeutic index (TI), VF” value (po)?
The value was 92.

What about the “therapeutic index (TI), arrhythmias” value (po) of the same molecule?
The value was 70.
